Reference: ChEMBL document CHEMBL3774317, “Design and synthesis of novel tamoxifen analogues that avoid CYP2D6 metabolism” (Eur J Med Chem, 2016)

What was measured:
Format in all cases: functional
MDA-MB-468 = experiment: Cytotoxicity against human MDA-MB-468 cells assessed as cell growth at 5 nM after 48 hrs by SRB assay; settings: MDA-MB-468, 48 h, read-out: Activity
MDA-MB-435 = experiment: Cytotoxicity against human MDA-MB-435 cells assessed as cell growth at 50 nM after 48 hrs by SRB assay; settings: MDA-MB-435, 48 h, read-out: Activity
A498 [1] = experiment: Cytotoxicity against human A498 cells assessed as cell growth at 50 nM after 48 hrs by SRB assay; settings: A498, 48 h, read-out: Activity
[2] = Cytotoxicity against human Caki1 cells assessed as cell growth at 50 nM after 48 hrs by SRB assay; settings: CAKI-1, 48 h, read-out: Activity
[3] = Cytotoxicity against human UO31 cells assessed as cell growth at 50 nM after 48 hrs by SRB assay; settings: UO-31, 48 h, read-out: Activity
[4] = Cytotoxicity against human PC3 cells assessed as cell growth at 50 nM after 48 hrs by SRB assay; settings: PC-3, 48 h, read-out: Activity
MDA-MB-231 = experiment: Cytotoxicity against human MDA-MB-231 cells assessed as cell growth at 50 nM after 48 hrs by SRB assay; settings: MDA-MB-231, 48 h, read-out: Activity
A498 [5] = experiment: Cytotoxicity against human A498 cells assessed as cell growth at 50 uM after 48 hrs by SRB assay; settings: A498, 48 h, read-out: Activity
NCI-H23 = experiment: Cytotoxicity against human NCI-H23 cells assessed as cell growth at 0.5 uM after 48 hrs by SRB assay; settings: NCI-H23, 48 h, read-out: Activity
[6] = Cytotoxicity against human HCT116 cells assessed as cell growth at 0.5 uM after 48 hrs by SRB assay; settings: HCT-116, 48 h, read-out: Activity
NCI-H322M = experiment: Cytotoxicity against human NCI-H322M cells assessed as cell growth at 5 nM after 48 hrs by SRB assay; settings: read-out: Activity
[7] = Cytotoxicity against human RXF393 cells assessed as cell growth at 5 uM after 48 hrs by SRB assay; settings: RXF 393, 48 h, read-out: Activity
[8] = Cytotoxicity against human HL-60(TB) cells assessed as cell growth at 50 uM after 48 hrs by SRB assay; settings: HL-60, 48 h, read-out: Activity
[9] = Cytotoxicity against human SNB19 cells assessed as cell growth at 10^-7 M after 48 hrs by SRB assay; settings: SNB-19, 48 h, read-out: Activity
[10] = Cytotoxicity against human LOXIMVI cells assessed as cell growth at 10^-7 M after 48 hrs by SRB assay; settings: LOX IMVI, read-out: Activity
[11] = Cytotoxicity against human OVCAR4 cells assessed as cell growth at […] after 48 hrs by SRB assay; settings: OVCAR-4, 48 h, read-out: Activity
[12] = Cytotoxicity against human RXF393 cells assessed as cell growth at 10^-7 M after 48 hrs by SRB assay; settings: RXF 393, 48 h, read-out: Activity
NCI-H226 [13] = experiment: Cytotoxicity against human NCI-H226 cells assessed as cell growth at 10^-6 M after 48 hrs by SRB assay; settings: NCI-H226, 48 h, read-out: Activity
[14] = Cytotoxicity against human NCI-ADR-RES cells assessed as cell growth at 10^-4 M after 48 hrs by SRB assay; settings: read-out: Activity
[15] = Cytotoxicity against human SKOV3 cells assessed as cell growth at 10^-4 M after 48 hrs by SRB assay; settings: SK-OV-3, 48 h, read-out: Activity
[16] = Cytotoxicity against human RXF393 cells assessed as cell growth at 10^-4 M after 48 hrs by SRB assay; settings: RXF 393, 48 h, read-out: Activity
[17] = Cytotoxicity against human TK10 cells assessed as cell growth at 10^-4 M after 48 hrs by SRB assay; settings: TK-10, 48 h, read-out: Activity
[18] = Cytotoxicity against human UO31 cells assessed as cell growth at 10^-4 M after 48 hrs by SRB assay; settings: UO-31, 48 h, read-out: Activity
[19] = Cytotoxicity against human HL-60(TB) cells assessed as cell growth at 10^-8 M after 48 hrs by SRB assay; settings: HL-60, 48 h, read-out: Activity
[20] = Cytotoxicity against human SNB19 cells assessed as cell growth at 10^-6 M after 48 hrs by SRB assay; settings: SNB-19, 48 h, read-out: Activity
ACHN = experiment: Cytotoxicity against human ACHN cells assessed as cell growth at 10^-6 M after 48 hrs by SRB assay; settings: read-out: Activity
[21] = Cytotoxicity against human RXF393 cells assessed as cell growth at 10^-6 M after 48 hrs by SRB assay; settings: RXF 393, 48 h, read-out: Activity
[22] = Cytotoxicity against human RPMI8226 cells assessed as cell growth at 10^-5 M after 48 hrs by SRB assay; settings: RPMI-8226, 48 h, read-out: Activity
NCI-H226 [23] = experiment: Cytotoxicity against human NCI-H226 cells assessed as cell growth at 10^-5 M after 48 hrs by SRB assay; settings: NCI-H226, 48 h, read-out: Activity
[24] = Cytotoxicity against human HOP92 cells assessed as cell growth at 10^-8 M after 48 hrs by SRB assay; settings: HOP-92, 48 h, read-out: Activity
[25] = Cytotoxicity against human COLO205 cells assessed as cell growth at 10^-8 M after 48 hrs by SRB assay; settings: COLO 205, 48 h, read-out: Activity
SK-MEL-2 = experiment: Cytotoxicity against human SK-MEL-2 cells assessed as cell growth at 10^-8 M after 48 hrs by SRB assay; settings: SK-MEL-2, 48 h, read-out: Activity
[26] = Cytotoxicity against human UACC62 cells assessed as cell growth at 10^-8 M after 48 hrs by SRB assay; settings: UACC-62, 48 h, read-out: Activity
[27] = Cytotoxicity against human OVCAR3 cells assessed as cell growth at 10^-8 M after 48 hrs by SRB assay; settings: OVCAR-3, 48 h, read-out: Activity
786-0 = experiment: Cytotoxicity against human 786-0 cells assessed as cell growth at 10^-8 M after 48 hrs by SRB assay; settings: 786-0, 48 h, read-out: Activity
[28] = Cytotoxicity against human HOP92 cells assessed as cell growth at 10^-7 M after 48 hrs by SRB assay; settings: HOP-92, 48 h, read-out: Activity
SK-MEL-5 = experiment: Cytotoxicity against human SK-MEL-5 cells assessed as cell growth at 10^-5 M after 48 hrs by SRB assay; settings: SK-MEL-5, 48 h, read-out: Activity
[29] = Cytotoxicity against human DU145 cells assessed as cell growth at 10^-5 M after 48 hrs by SRB assay; settings: DU-145, 48 h, read-out: Activity
T47D = experiment: Cytotoxicity against human T47D cells assessed as cell growth at 10^-5 M after 48 hrs by SRB assay; settings: read-out: Activity
CCRF-CEM = experiment: Cytotoxicity against human CCRF-CEM cells assessed as cell growth at 10^-4 M after 48 hrs by SRB assay; settings: read-out: Activity
[30] = Cytotoxicity against human HL-60(TB) cells assessed as cell growth at 10^-4 M after 48 hrs by SRB assay; settings: HL-60, 48 h, read-out: Activity

Q: For `CCCCCCCCCC(=O)Oc1ccc(/C(=C(/C)c2ccccc2)c2ccc(OCCN3CCCC3)cc2)cc1`, which growth at 0.005 µM (MDA-MB-468) is on record?
A: 96%

Q: And the growth at 0.05 µM (MDA-MB-435)?
A: 92%

Q: And the growth at 0.05 µM (A498 [1])?
A: 53%

Q: What about the growth at 0.05 µM [2] of the same compound?
A: 82%

Q: And the growth at 0.05 µM [3]?
A: 89%

Q: And the growth at 0.05 µM [4]?
A: 97%

Q: And the growth at 0.05 µM (MDA-MB-231)?
A: 105%

Q: And the growth at 50 µM (A498 [5])?
A: -84%

Q: And the growth at 0.5 µM (NCI-H23)?
A: 71%

Q: What about the growth at 0.5 µM [6] of the same compound?
A: 71%

Q: And the growth at 0.005 µM (NCI-H322M)?
A: 94%

Q: What about the growth at 5 µM [7] of the same compound?
A: 73%

Q: What about the growth at 50 µM [8] of the same compound?
A: -70%

Q: With `C/C(=C(/c1ccc(O)cc1)c1ccc(OCCN2CCCC2)cc1)c1ccccc1` as the compound, how does the growth at 0.1 µM [9] read?
A: 101%

Q: What about the growth at 0.1 µM [10] of the same compound?
A: 95%

Q: And the growth at 0.1 µM [11]?
A: 95%

Q: What about the growth at 0.1 µM [12] of the same compound?
A: 105%

Q: And the growth at 1 µM (NCI-H226 [13])?
A: 91%

Q: What about the growth at 100 µM [14] of the same compound?
A: -70%

Q: And the growth at 100 µM [15]?
A: -98%

Q: What about the growth at 100 µM [16] of the same compound?
A: -81%

Q: And the growth at 100 µM [17]?
A: -100%

Q: And the growth at 100 µM [18]?
A: -92%

Q: What about the growth at 0.01 µM [19] of the same compound?
A: 97%

Q: And the growth at 1 µM [20]?
A: 104%

Q: What about the growth at 1 µM (ACHN) of the same compound?
A: 93%

Q: What about the growth at 1 µM [21] of the same compound?
A: 87%

Q: And the growth at 10 µM [22]?
A: -19%

Q: And the growth at 10 µM (NCI-H226 [23])?
A: 56%

Q: What about the growth at 0.01 µM [24] of the same compound?
A: 98%

Q: And the growth at 0.01 µM [25]?
A: 93%

Q: And the growth at 0.01 µM (SK-MEL-2)?
A: 97%

Q: What about the growth at 0.01 µM [26] of the same compound?
A: 99%

Q: What about the growth at 0.01 µM [27] of the same compound?
A: 106%

Q: And the growth at 0.01 µM (786-0)?
A: 97%

Q: And the growth at 0.1 µM [28]?
A: 102%

Q: And the growth at 10 µM (SK-MEL-5)?
A: -99%

Q: And the growth at 10 µM [29]?
A: 49%

Q: What about the growth at 10 µM (T47D) of the same compound?
A: -5%

Q: And the growth at 100 µM (CCRF-CEM)?
A: -71%

Q: What about the growth at 100 µM [30] of the same compound?
A: -69%
